Measured values taken from ChEMBL document CHEMBL1201862, “PubChem BioAssay data set” (2004).
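Method: 48-hour compound exposure of cells in 96-well plates, five concentrations, linear interpolation of endpoints. Here, GI50 denotes the concentration required for 50% inhibition of growth.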 The source made the active and inactive calls. No stated cut-off is given here; in the data, active = GI50 up to about 1.1 µM and inactive = higher.

Experiments:
Assay in all cases: inhibition of tumour cell growth, NCI panel, 48 h
[1] = system: SNB-75
[2] = system: K562
[3] = system: A549
[4] = system: SW-620
[5] = system: SK-MEL-5
[6] = system: UACC-257
[7] = system: OVCAR-4
[8] = system: NCI-H522
[9] = system: CAKI-1
[10] = system: UO-31
[11] = system: SF-295
[12] = system: HCC 2998
[13] = system: SNB-78
[14] = system: KM-20L2
[15] = system: MOLT-4
[16] = system: RPMI-8226
[17] = system: SN12C

Measured: GI50

COC(=O)C1CC(=O)CCC1c1ccccc1 (stereo not drawn)
inactive: [1] > 100 µM | [2] > 100 µM | [3] > 100 µM | [4] > 100 µM | [5] > 100 µM | [6] > 100 µM | [7] > 100 µM | [8] > 100 µM | [9] > 100 µM | [10] > 100 µM | [11] > 100 µM | [12] > 100 µM | [13] > 100 µM | [14] > 100 µM | [15] > 100 µM | [16] > 100 µM | [17] > 100 µM

CSc1nc(SC)c2c(C#N)n[nH]c2n1
inactive: [1] 63.5 µM | [2] > 100 µM | [3] > 100 µM | [4] > 100 µM | [5] > 100 µM | [6] > 100 µM | [7] > 100 µM | [8] > 100 µM | [9] > 100 µM | [10] > 100 µM | [11] > 100 µM | [12] > 100 µM | [13] > 100 µM | [14] > 100 µM | [15] > 100 µM | [16] > 100 µM | [17] > 100 µM

COC(=O)[C@@H]1CCCCC[C@H]2C(CO)=C(C)C(=O)C12 (stereo partly drawn)
inactive: [1] > 100 µM | [2] > 100 µM | [3] > 100 µM | [4] > 100 µM | [5] > 100 µM | [6] > 100 µM | [7] > 100 µM | [8] > 100 µM | [9] > 100 µM | [10] > 100 µM | [11] > 100 µM | [12] > 100 µM | [13] > 100 µM | [14] > 100 µM | [15] > 100 µM | [16] > 100 µM | [17] > 100 µM

Cc1cc(C)nc(NS(=O)(=O)c2ccc(NC(=O)c3ccc(Cl)c4c(Nc5ccc(S(=O)(=O)Nc6cc(C)on6)cc5)c5ccccc5nc34)cc2)n1
inactive: [1] > 10 µM | [2] 20.9 µM | [3] 19.7 µM | [4] 17.3 µM | [5] 16.4 µM | [6] 18.2 µM | [7] 16.7 µM | [8] 16.1 µM | [9] 15.7 µM | [10] 17.6 µM | [11] 18.2 µM | [12] 18.7 µM | [13] 13.9 µM | [14] 18.5 µM | [15] 22.9 µM | [16] 17.9 µM | [17] 17.9 µM

CCc1cccc(C(C)C)c1NC(=O)C(=O)CC(=O)c1c(C)[n+]([O-])c2ccccc2[n+]1[O-]
inactive: [1] > 100 µM | [2] > 100 µM | [3] > 100 µM | [4] > 100 µM | [5] > 100 µM | [7] > 100 µM | [8] > 100 µM | [9] > 100 µM | [10] > 100 µM | [12] > 100 µM | [13] > 100 µM | [14] > 100 µM | [15] 56.1 µM | [16] 30.1 µM | [17] > 100 µM

C=C1C(OC(=O)/C=C/c2ccccc2)CC(OC(C)=O)C2(C)C1CC1CC(OC(C)=O)C(C)=C(C(OC(C)=O)C2OC(C)=O)C1(C)C (stereo not drawn)
inactive: [1] > 100 µM | [2] 5.25 µM | [3] 5.45 µM | [4] > 100 µM | [5] 4.1 µM | [8] > 100 µM | [9] > 100 µM | [10] > 100 µM | [11] > 100 µM | [12] 7.71 µM | [13] > 100 µM | [14] > 100 µM | [15] 4.61 µM | [16] 3.13 µM | [17] > 100 µM
